Assay results taken from patent publication US10041115B2, “3′-OH unblocked, fast photocleavable terminating nucleotides and methods for nucleic acid sequencing” (LASERGEN, INC., priority 2011, dated 2018).

Assay: Photochemical cleavage assays of incorporated nucleotide analogs (365 nm UV light, DT50)
Type: physicochemical
Details: for DT50 in 1 mM NaN3, 50 mM DTT / DT50 in 1 mM NaN3, No DTT: 365 nm UV, 0.70 W/cm^2; for DT50 values: UV photochemical cleavage experiments; for DT50 value of ds1 isomer compared with the parent dA.I analog: ds1 isomers of the α-isopropyl C^7-HOMedA set; for faster photochemical cleavage rates of ds2 isomers compared with their ds1 counterparts, factor: ds2 vs ds1 isomer of the same analog
Procedure: As used herein, the term “DT50” refers to the amount of time required to cleavage 50% of the base analog incorporated in the primer-template complex.
To compare the rates of photochemical cleavage between the nucleotide analogs described here, a protocol was developed to deliver a daily light intensity output of 0.70±0.01 W/cm^2 to samples, see below.
The power supply was turned on for about 30 min prior to that of the lamp and recirculation bath as described by the manufacturer. The IR liquid filter was cooled to 9° C. Light intensity was determined using a model PM100 power meter (Thorlabs), a 1000 μm pinhole (Edmund Optics), a modified 0.5 mL Eppendorf tube cut in half, and a 3-axis manual translation stage (Newport), see FIG. 5. The half cut Eppendorf tube was positioned in front of the pinhole and power meter detector head to account for the geometric shape distortion of the light as it passes through a reaction solution. The translation stage was then used to align the tube/pinhole/detector device with the highest intensity from the arc beam.
To stabilize its output, the lamp was left on for one hour prior to intensity measurements. Thereafter, the measured power was adjusted by increasing the current from the power supply. In order to achieve intensity (I) of 0.70 W/cm^2, the measured power (P) was adjusted to ˜5.5 mW, according to the equation:
[formula] where r is the radius of pinhole.
The beam was then focused by placing an 0.5 mL Eppendorf tube into the sample holder, the tube of which was modified with an internal alignment card to provide reference lines for volume heights of 10 μL and 20 μL, see FIG. 5. The reference lines enabled the beam to be centered for a given reaction volume. Beam alignment was further verified by observing the mercury arc image of the lamp produced by the rear reflector. A second alignment card was placed into the rotating sample holder to view the image, which when properly aligned using the reflector would produce an inverted arc image on the arc gap itself. This step ensured that arc hotspots were not superimposed, which could cause overheating while maintaining a power output of ˜5.5 mW. The speed of the rotating sample holder was adjusted within a range of 1,200-1,350 rpm using a Nova-Strobe DA Plus stroboscope (Monarch Instrument) by adjusting the motor's torque with an adjustment screw.
Photochemical cleavage assays: Nucleotide analogs were incorporated using 10 μL reactions, as described for the PEP assays, at a final concentration of 100 nM. […] OligoTemplate-2, oligoTemplate-5, and oligoTemplate-4 each hybridized with BODIPY-FL labeled primer-1 were used for C^7-HOMedA, C^7-HOMedG, and HOMedU analogs, respectively. OligoTemplate-8 hybridized with BODIPY-FL labeled primer-3 was used to assay HOMedC analogs. Incorporated reactions were quenched with either 1 mM sodium azide solution; 1 mM sodium azide, 50 mM DTT solution; or reagents C-G (see key in FIG. 4), exposed to 365 nm ultraviolet (UV) light for various time points using our UV deprotector, and then placed on ice.

[1] = Table 3, reversible terminators
[2] = Table 3, reversible terminators, [a] transient product considered as cleaved product
[3] = Table 1, C^7-HOMedA analogs, average ± 1SD, triplicate
[4] = Table 2, C^7-HOMedG analogs, average ± 1SD, triplicate

SMILES	DT50 in 1 mM NaN3, 50 mM DTT [1] [s]	DT50 in 1 mM NaN3, No DTT [2]	DT50 in 1 mM NaN3, 50 mM DTT [3] [s]	DT50 in 1 mM NaN3, No DTT [3] [s]	faster photochemical cleavage rates of ds2 isomers compared with their ds1 counterparts, factor [×]	also measured
Nc1nc(=O)n([C@H]2C[C@H](O)[C@@H](COP(=O)(O)OP(=O)(O)OP(=O)(O)O)O2)cc1COCc1ccccc1[N+](=O)[O-] [dC.I, 5-(2-nitrobenzyloxy)methyl-2′-deoxycytidine-5′-triphosphate]	1.6 ± 0.2	2.0 ± 0.3 s	–	–	–	DT50 values: 2.0 s
CC(C)C(OCc1cn([C@H]2C[C@H](O)[C@@H](COP(=O)(O)OP(=O)(O)OP(=O)(O)O)O2)c2ncnc(N)c12)c1c([N+](=O)[O-])cccc1[N+](=O)[O-] (single isomer, unassigned) [dA.III.c ds1, 7-[1-(2,6-dinitrophenyl)-2-methyl-propyloxy]methyl-7-deaza-2′-deoxyadenosine-5′-triphosphate]	–	–	3.0 ± 0.2	3.4 ± 0.2	–	DT50 value of ds1 isomer compared with the parent dA.I analog: similar
CC(C)(C)C(OCc1cn([C@H]2C[C@H](O)[C@@H](COP(=O)(O)OP(=O)(O)OP(=O)(O)O)O2)c2nc(N)[nH]c(=O)c12)c1ccccc1[N+](=O)[O-] (single isomer, unassigned) [dG.V.a ds2, 7-[1-(2-nitrophenyl)-2,2-dimethyl-propyloxy]methyl-7-deaza-2′-deoxyguanosine-5′-triphosphate]	–	–	–	–	3.1	DT50 in 1 mM NaN3, 50 mM DTT [4]: 3.5 ± 0.3 s; DT50 in 1 mM NaN3, No DTT [4]: 3.6 ± 0.3 s
COc1ccc(C(OCc2cn([C@H]3C[C@H](O)[C@@H](COP(=O)(O)OP(=O)(O)OP(=O)(O)O)O3)c3nc(N)[nH]c(=O)c23)C(C)(C)C)c([N+](=O)[O-])c1 (single isomer, unassigned) [dG.V.b ds1, 7-[1-(4-methoxy-2-nitrophenyl)-2,2-dimethyl-propyloxy]methyl-7-deaza-2′-deoxyguanosine-5′-triphosphate]	–	–	–	–	–	DT50 in 1 mM NaN3, 50 mM DTT [4]: 4.6 ± 0.3 s; DT50 in 1 mM NaN3, No DTT [4]: 4.9 ± 0.3 s
Nc1ncnc2c1c(COCc1ccccc1[N+](=O)[O-])cn2[C@H]1C[C@H](O)[C@@H](COP(=O)(O)OP(=O)(O)OP(=O)(O)O)O1 [dA.I, 7-(2-nitro-benzyloxy)methyl-7-deaza-2′-deoxyadenosine-5′-triphosphate]	3.5 ± 0.1	3.6 ± 0.1 s	3.5 ± 0.1	3.6 ± 0.1	–	–
CC(C)(C)[C@H](OCc1cn([C@H]2C[C@H](O)[C@@H](COP(=O)(O)OP(=O)(O)OP(=O)(O)O)O2)c(=O)nc1N)c1ccccc1[N+](=O)[O-] [dC.V, 5-[(S)-1-(2-nitrophenyl)-2,2-dimethyl-propyloxy]methyl-2′-deoxycytidine-5′-triphosphate]	1.0 ± 0.2	1.2 ± 0.1 s	–	–	–	–
COc1ccc([N+](=O)[O-])c([C@@H](OCc2cn([C@H]3C[C@H](O)[C@@H](COP(=O)(O)OP(=O)(O)OP(=O)(O)O)O3)c3nc(N)[nH]c(=O)c23)C(C)(C)C)c1 [dG.VI, 7-[(S)-1-(5-methoxy-2-nitrophenyl)-2,2-dimethyl-propyloxy]methyl-7-deaza-2′-deoxyguanosine-5′-triphosphate]	0.8 ± 0.1	0.8 ± 0.1 s	–	–	–	–
CC(C)C(OCc1cn([C@H]2C[C@H](O)[C@@H](COP(=O)(O)OP(=O)(O)OP(=O)(O)O)O2)c2ncnc(N)c12)c1c([N+](=O)[O-])cccc1[N+](=O)[O-] (single isomer, unassigned) [dA.III.c ds2, 7-[1-(2,6-dinitrophenyl)-2-methyl-propyloxy]methyl-7-deaza-2′-deoxyadenosine-5′-triphosphate]	–	–	2.5 ± 0.1	2.8 ± 0.2	1.2	–
CC(C)C(OCc1cn([C@H]2C[C@H](O)[C@@H](COP(=O)(O)OP(=O)(O)OP(=O)(O)O)O2)c2ncnc(N)c12)c1ccccc1[N+](=O)[O-] (single isomer, unassigned) [dA.III.a ds2, 7-[1-(2-nitrophenyl)-2-methyl-propyloxy]methyl-7-deaza-2′-deoxyadenosine-5′-triphosphate]	–	–	2.1 ± 0.1	2.2 ± 0.1	2.0	–
COc1ccc(C(OCc2cn([C@H]3C[C@H](O)[C@@H](COP(=O)(O)OP(=O)(O)OP(=O)(O)O)O3)c3nc(N)[nH]c(=O)c23)C(C)(C)C)c([N+](=O)[O-])c1 (single isomer, unassigned) [dG.V.b ds2, 7-[1-(4-methoxy-2-nitrophenyl)-2,2-dimethyl-propyloxy]methyl-7-deaza-2′-deoxyguanosine-5′-triphosphate]	–	–	–	–	4.5	DT50 in 1 mM NaN3, 50 mM DTT [4]: 1.3 ± 0.2 s; DT50 in 1 mM NaN3, No DTT [4]: 1.1 ± 0.1 s
COc1ccc([N+](=O)[O-])c([C@@H](OCc2cn([C@H]3C[C@H](O)[C@@H](COP(=O)(O)OP(=O)(O)OP(=O)(O)O)O3)c3ncnc(N)c23)C(C)(C)C)c1 [dA.VI, 7-[(S)-1-(5-methoxy-2-nitrophenyl)-2,2-dimethyl-propyloxy]methyl-7-deaza-2′-deoxyadenosine-5′-triphosphate]	0.8 ± 0.1	0.8 ± 0.1^[a] sec	–	–	–	–
CC(C)(C)[C@H](OCc1cn([C@H]2C[C@H](O)[C@@H](COP(=O)(O)OP(=O)(O)OP(=O)(O)O)O2)c2nc(N)[nH]c(=O)c12)c1ccccc1[N+](=O)[O-] [dG.V, 7-[(S)-1-(2-nitrophenyl)-2,2-dimethyl-propyloxy]methyl-7-deaza-2′-deoxyguanosine-5′-triphosphate]	2.9 ± 0.2	3.0 ± 0.1 s	–	–	–	–
CC(C)(C)[C@H](OCc1cn([C@H]2C[C@H](O)[C@@H](COP(=O)(O)OP(=O)(O)OP(=O)(O)O)O2)c2ncnc(N)c12)c1ccccc1[N+](=O)[O-] [dA.V, 7-[(S)-1-(2-nitrophenyl)-2,2-dimethyl-propyloxy]methyl-7-deaza-2′-deoxyadenosine-5′-triphosphate]	2.0 ± 0.2	2.1 ± 0.1 s	–	–	–	–
COc1ccc([N+](=O)[O-])c(C(OCc2cn([C@H]3C[C@H](O)[C@@H](COP(=O)(O)OP(=O)(O)OP(=O)(O)O)O3)c3nc(N)[nH]c(=O)c23)C(C)(C)C)c1 (single isomer, unassigned) [dG.V.c ds2, 7-[1-(5-methoxy-2-nitrophenyl)-2,2-dimethyl-propyloxy]methyl-7-deaza-2′-deoxyguanosine-5′-triphosphate]	–	–	–	–	4.4	DT50 in 1 mM NaN3, 50 mM DTT [4]: 0.8 ± 0.1 s; DT50 in 1 mM NaN3, No DTT [4]: 0.8 ± 0.1 s; DT50 values: 0.8 s; rate increases, dG.V.c compared with dG.V.a (same isomer (ds1 or ds2) of dG.V.c vs dG.V.a): 4.4 ×; faster photochemical cleavage rates compared with the corresponding 4-OMe isomers (α-tert-butyl C^7-HOMedG analogs, 5-OMe vs 4-OMe): 1.4 × fold
COc1ccc(C(OCc2cn([C@H]3C[C@H](O)[C@@H](COP(=O)(O)OP(=O)(O)OP(=O)(O)O)O3)c3ncnc(N)c23)C(C)C)c([N+](=O)[O-])c1 (single isomer, unassigned) [dA.III.b ds1, 7-[1-(4-methoxy-2-nitrophenyl)-2-methyl-propyloxy]methyl-7-deaza-2′-deoxyadenosine-5′-triphosphate]	–	–	6.1 ± 0.4	7.0 ± 0.3	–	DT50 value of ds1 isomer compared with the parent dA.I analog: higher
